Assay results taken from the supplement of paper PMC10307832.

What was measured:
Test in all cases: relative viability (nuclei count vs DMSO), 5 days (fraction); higher = more cells survive
VE-821 + Crizotinib = compound: CS(=O)(=O)c1ccc(-c2cnc(N)c(C(=O)Nc3ccccc3)n2)cc1 [VE-821] + C[C@@H](Oc1cc(-c2cnn(C3CCNCC3)c2)cnc1N)c1c(Cl)ccc(F)c1Cl [Crizotinib] (partner 1 µM)
Procedure, shortened: (§1)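 Five library-drug doses in √10 steps were combined with a fixed anchor-drug dose, or a single drug was given alone, by pin tool to lung cancer cell lines in 1536-well plates the day after seeding. Nuclei were stained and counted after 5 days. Relative viability is the nuclei count in treated wells over that in vehicle wells, taken as the median of duplicate plates.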

Ruxolitinib + Pictilisib = compound: N#CC[C@H](C1CCCC1)n1cc(-c2ncnc3[nH]ccc23)cn1 [Ruxolitinib] + CS(=O)(=O)N1CCN(Cc2cc3nc(-c4cccc5[nH]ncc45)nc(N4CCOCC4)c3s2)CC1 [Pictilisib] (partner 1 µM)
Procedure, shortened: as §1

Ruxolitinib + Luminespib = compound: N#CC[C@H](C1CCCC1)n1cc(-c2ncnc3[nH]ccc23)cn1 [Ruxolitinib] + CCNC(=O)c1noc(-c2cc(C(C)C)c(O)cc2O)c1-c1ccc(CN2CCOCC2)cc1 [Luminespib] (partner 0.01 µM)
Procedure, shortened: as §1

Ruxolitinib + Pemetrexed = compound: N#CC[C@H](C1CCCC1)n1cc(-c2ncnc3[nH]ccc23)cn1 [Ruxolitinib] + Nc1nc2[nH]cc(CCc3ccc(C(=O)N[C@@H](CCC(=O)O)C(=O)O)cc3)c2c(=O)[nH]1 [Pemetrexed] (partner 0.2 µM)
Procedure, shortened: as §1

UMC-11
relative viability (VE-821 + Crizotinib; first compound 0.08 µM): 0.85 | relative viability (VE-821 + Crizotinib; first compound 0.253 µM): 0.681 | relative viability (VE-821 + Crizotinib; first compound 0.8 µM): 0.534 | relative viability (VE-821 + Crizotinib; first compound 2.53 µM): 0.626 | relative viability (VE-821 + Crizotinib; first compound 8 µM): 0.238 | relative viability (Ruxolitinib + Pictilisib; first compound 0.08 µM): 0.738 | relative viability (Ruxolitinib + Pictilisib; first compound 0.253 µM): 0.853 | relative viability (Ruxolitinib + Pictilisib; first compound 0.8 µM): 1.05 | relative viability (Ruxolitinib + Pictilisib; first compound 2.53 µM): 0.958 | relative viability (Ruxolitinib + Pictilisib; first compound 8 µM): 0.927 | relative viability (Ruxolitinib + Luminespib; first compound 0.08 µM): 1.04 | relative viability (Ruxolitinib + Luminespib; first compound 0.253 µM): 1.03 | relative viability (Ruxolitinib + Luminespib; first compound 0.8 µM): 1.26 | relative viability (Ruxolitinib + Luminespib; first compound 2.53 µM): 1.1 | relative viability (Ruxolitinib + Luminespib; first compound 8 µM): 0.978 | relative viability (Ruxolitinib + Pemetrexed; first compound 0.08 µM): 0.795 | relative viability (Ruxolitinib + Pemetrexed; first compound 0.253 µM): 0.777 | relative viability (Ruxolitinib + Pemetrexed; first compound 0.8 µM): 0.757 | relative viability (Ruxolitinib + Pemetrexed; first compound 2.53 µM): 0.924 | relative viability (Ruxolitinib + Pemetrexed; first compound 8 µM): 0.786
